{
  "source": "patent EP2436673A1",
  "about": "(Niaraki, Anna, priority 2010, dated 2012)",
  "key": {"[1]": {"molecular_target": "T1, Aβ1-42 fibrils (Homo sapiens, UniProt P05067)", "T1 construct": "made in house; host or cells: chemical peptide synthesis (depsi-peptide, pH switch, then acid incubation to fibrils)", "T1 sequence (P05067 672-713 limits assumed)": "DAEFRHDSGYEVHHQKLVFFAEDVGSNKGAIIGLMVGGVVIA", "assay": "Surface Plasmon Resonance (SPR) binding to immobilized Aβ1-42 fibrils", "description": "To prepare Aβ1-42 fibrils, the switched peptide solution was diluted with water to 100 µM, acidified to pH 2.0 with 1 M HCl, and left to incubate for 24 hrs at 37 °C [56].\n(§1) For these studies we used the ProteOn XPR36 (Biorad) apparatus, which has six parallel flow channels that can be used to uniformly immobilize strips of six \"ligands\" on the sensor surface. Aβ1-42 \"monomers\" or fibrils were immobilized in two of these parallel-flow channels of a GLC sensor chip (Biorad) using amine-coupling chemistry. Briefly, after surface activation the peptide solutions (10 µM in acetate buffer pH 4.0) were injected for 5 min at a flow rate of […], and the remaining activated groups were blocked with ethanolamine, pH 8.0. Bovine serum albumin (BSA) was also immobilized in another parallel flow channel, as a reference protein. […] A fourth surface was prepared using the same immobilization procedure but without addition of the peptide (\"empty\", reference surface).\n(§2) The fluidic system of Proteon XPR36 can automatically rotate 90° so that up to six different \"analytes\" (e.g. different liposomes prepations, or different concentrations of the same preparation) could be injected simultaneously over all the different immobilized molecules.\n(§3) ProteOn analysis software (BioRad) was used for the fitting of sensorgrams, to obtain the association and dissociation rate constants of the binding (Kon and Koff) and the corresponding KD value. The simplest 1:1 interaction model (Langmuir model) is used at first."}, "[2]": {"molecular_target": "T2, Aβ1-42 monomers (Homo sapiens, UniProt P05067)", "T2 construct": "The native Aβ1-42 peptide was then obtained from the depsi peptide; made in house; host or cells: chemical peptide synthesis (depsi-peptide, then pH switch)", "T2 sequence (P05067 672-713 limits assumed)": "as above", "assay": "Surface Plasmon Resonance (SPR) binding to immobilized Aβ1-42 monomers", "description": "as §1, §2, §3"}, "[3]": {"test_system": "Aβ aggregation", "details": "reported in literature; cited from earlier work"}, "[4]": {"details": "additional, fibril-specific binding component, two-sites model"}, "[5]": {"details": "SPR, liposomes 18 at 300 nM exposed curcumin-derivative, plain liposomes at 1360 nM"}},
  "data": [
    {"smiles": "COc1cc(/C=C/c2cc(/C=C/c3ccc(O)c(OC)c3)n(CC(=O)NCc3cn(CCOCCOCCO)nn3)n2)ccc1O", "note": "[TREG, 2-(3,5-bis((E)-4-hydroxy-3-methoxystyryl)-1H-pyrazol-1-yl)-N-((1-(2-(2-(2-hydroxyethoxy)ethoxy)ethyl)-1H-1,2,3-triazol-4-yl)methyl)acetamide]", "values": [
      {"measurement": "Kd", "setting": "[1]; [4]", "result": 7, "unit": "µM"},
      {"measurement": "koff", "setting": "[1]; [4]", "result": 0.001, "unit": "s⁻¹"},
      {"measurement": "kon", "setting": "[1]; [4]", "result": 163, "unit": "M⁻¹ s⁻¹"},
      {"measurement": "Kd", "setting": "[2]; Aβ1-42 monomers, rough estimate from Kon and Koff after global fitting, one-site model", "result": 23, "unit": "µM"}
    ]},
    {"smiles": "COc1cc(/C=C/C(=O)CC(=O)/C=C/c2ccc(O)c(OC)c2)ccc1O", "note": "[curcumin, Curcumin]", "values": [
      {"measurement": "inhibition of Aβ aggregation (in words)", "setting": "[3]", "result": "inhibits Aβ aggregation in the low µM range"}
    ]},
    {"smiles": "Nc1c(/N=N/c2ccc(-c3ccc(/N=N/c4cc(S(=O)(=O)O)c5ccccc5c4N)cc3)cc2)cc(S(=O)(=O)O)c2ccccc12", "note": "[Congo-Red, reference compound]", "values": [
      {"measurement": "binding to Aβ1-42 fibrils (in words)", "setting": "[1]; [5]", "result": "only bound to Aβ fibrils"},
      {"measurement": "binding to Aβ1-42 monomers (in words)", "setting": "[2]; [5]", "result": "only bound to Aβ fibrils but not \"monomers\""}
    ]}
  ]
}
